Results reported in the NIST ThermoML archive (doi:10.1021/je3006985).
± gives the expanded uncertainty stated by the source.

Key:
[1] = osmotic coefficient (dimensionless); mn = molality of the nth substance listed, in mol/kg; conditions: 298.15 K, Liquid, Vapor Pressure Osmometer (Knaur K-7000)
[2] = mn = molality of the nth substance listed, in mol/kg; conditions: 298.15 K, 101 kPa, Liquid

## CCN(CC)CCOC(=O)c1ccc(N)cc1.Cl [2-diethylaminoethyl p-aminobenzoate hydrochloride] + O
[1]; m1 = 0.0158
  osmotic coefficient: 0.885 ± 0.005
[1]; m1 = 0.01893
  osmotic coefficient: 0.873 ± 0.005
[1]; m1 = 0.02475
  osmotic coefficient: 0.856 ± 0.006
[1]; m1 = 0.03023
  osmotic coefficient: 0.843 ± 0.006
[1]; m1 = 0.03265
  osmotic coefficient: 0.838 ± 0.006
[1]; m1 = 0.03891
  osmotic coefficient: 0.827 ± 0.007
[1]; m1 = 0.04358
  osmotic coefficient: 0.82 ± 0.007
[1]; m1 = 0.04823
  osmotic coefficient: 0.814 ± 0.007
[1]; m1 = 0.05787
  osmotic coefficient: 0.804 ± 0.008
[1]; m1 = 0.0712
  osmotic coefficient: 0.794 ± 0.008
[1]; m1 = 0.09584
  osmotic coefficient: 0.781 ± 0.008
[1]; m1 = 0.1165
  osmotic coefficient: 0.772 ± 0.009
[1]; m1 = 0.1438
  osmotic coefficient: 0.759 ± 0.009
[1]; m1 = 0.1749
  osmotic coefficient: 0.741 ± 0.01
[1]; m1 = 0.1973
  osmotic coefficient: 0.727 ± 0.011
[1]; m1 = 0.2187
  osmotic coefficient: 0.713 ± 0.011
[1]; m1 = 0.2457
  osmotic coefficient: 0.694 ± 0.012
[1]; m1 = 0.2791
  osmotic coefficient: 0.673 ± 0.013
[1]; m1 = 0.2997
  osmotic coefficient: 0.661 ± 0.013
[1]; m1 = 0.3205
  osmotic coefficient: 0.65 ± 0.014
[1]; m1 = 0.3523
  osmotic coefficient: 0.636 ± 0.014
[1]; m1 = 0.4061
  osmotic coefficient: 0.62 ± 0.015
[1]; m1 = 0.4613
  osmotic coefficient: 0.609 ± 0.015
[1]; m1 = 0.517
  osmotic coefficient: 0.587 ± 0.016
[2]; m1 = 0.0158
  mass density: 997.809 ± 0.1 kg/m3
[2]; m1 = 0.01893
  mass density: 997.979 ± 0.096 kg/m3
[2]; m1 = 0.02475
  mass density: 998.219 ± 0.096 kg/m3
[2]; m1 = 0.03023
  mass density: 998.477 ± 0.098 kg/m3
[2]; m1 = 0.03265
  mass density: 998.609 ± 0.096 kg/m3
[2]; m1 = 0.03891
  mass density: 998.872 ± 0.096 kg/m3
[2]; m1 = 0.04358
  mass density: 999.105 ± 0.098 kg/m3
[2]; m1 = 0.04823
  mass density: 999.338 ± 0.097 kg/m3
[2]; m1 = 0.05787
  mass density: 999.774 ± 0.096 kg/m3
[2]; m1 = 0.0712
  mass density: 1000.37 ± 0.1 kg/m3
[2]; m1 = 0.09584
  mass density: 1001.52 ± 0.1 kg/m3
[2]; m1 = 0.1165
  mass density: 1002.46 ± 0.1 kg/m3
[2]; m1 = 0.1438
  mass density: 1003.64 ± 0.1 kg/m3
[2]; m1 = 0.1749
  mass density: 1005.05 ± 0.1 kg/m3
[2]; m1 = 0.1973
  mass density: 1005.94 ± 0.11 kg/m3
[2]; m1 = 0.2187
  mass density: 1007.01 ± 0.11 kg/m3
[2]; m1 = 0.2457
  mass density: 1008.14 ± 0.11 kg/m3
[2]; m1 = 0.2791
  mass density: 1009.54 ± 0.11 kg/m3
[2]; m1 = 0.2997
  mass density: 1010.41 ± 0.11 kg/m3
[2]; m1 = 0.3205
  mass density: 1011.32 ± 0.12 kg/m3
[2]; m1 = 0.3523
  mass density: 1012.67 ± 0.12 kg/m3
[2]; m1 = 0.4061
  mass density: 1014.95 ± 0.12 kg/m3
[2]; m1 = 0.4613
  mass density: 1016.97 ± 0.13 kg/m3
[2]; m1 = 0.517
  mass density: 1019.21 ± 0.14 kg/m3

## CCN(CC)CC(=O)Nc1c(C)cccc1C.Cl [lidocaine hydrochloride] + O
[1]; m1 = 0.01004
  osmotic coefficient: 0.879 ± 0.005
[1]; m1 = 0.02018
  osmotic coefficient: 0.83 ± 0.007
[1]; m1 = 0.02958
  osmotic coefficient: 0.807 ± 0.007
[1]; m1 = 0.03474
  osmotic coefficient: 0.8 ± 0.008
[1]; m1 = 0.03911
  osmotic coefficient: 0.796 ± 0.008
[1]; m1 = 0.04409
  osmotic coefficient: 0.793 ± 0.008
[1]; m1 = 0.04809
  osmotic coefficient: 0.792 ± 0.008
[1]; m1 = 0.05588
  osmotic coefficient: 0.792 ± 0.008
[1]; m1 = 0.07017
  osmotic coefficient: 0.796 ± 0.008
[1]; m1 = 0.09322
  osmotic coefficient: 0.805 ± 0.008
[1]; m1 = 0.1151
  osmotic coefficient: 0.812 ± 0.007
[1]; m1 = 0.141
  osmotic coefficient: 0.813 ± 0.007
[1]; m1 = 0.1712
  osmotic coefficient: 0.805 ± 0.008
[1]; m1 = 0.188
  osmotic coefficient: 0.797 ± 0.008
[1]; m1 = 0.2082
  osmotic coefficient: 0.785 ± 0.008
[1]; m1 = 0.2386
  osmotic coefficient: 0.765 ± 0.009
[1]; m1 = 0.2675
  osmotic coefficient: 0.748 ± 0.01
[1]; m1 = 0.2906
  osmotic coefficient: 0.736 ± 0.01
[1]; m1 = 0.3089
  osmotic coefficient: 0.728 ± 0.011
[1]; m1 = 0.3399
  osmotic coefficient: 0.72 ± 0.011
[1]; m1 = 0.3919
  osmotic coefficient: 0.718 ± 0.011
[1]; m1 = 0.4432
  osmotic coefficient: 0.72 ± 0.011
[1]; m1 = 0.4982
  osmotic coefficient: 0.696 ± 0.012
[2]; m1 = 0.01004
  mass density: 997.37 ± 0.091 kg/m3
[2]; m1 = 0.02018
  mass density: 997.713 ± 0.091 kg/m3
[2]; m1 = 0.02958
  mass density: 998.034 ± 0.091 kg/m3
[2]; m1 = 0.03474
  mass density: 998.184 ± 0.091 kg/m3
[2]; m1 = 0.03911
  mass density: 998.35 ± 0.091 kg/m3
[2]; m1 = 0.04409
  mass density: 998.51 ± 0.09 kg/m3
[2]; m1 = 0.04809
  mass density: 998.641 ± 0.09 kg/m3
[2]; m1 = 0.05588
  mass density: 998.887 ± 0.091 kg/m3
[2]; m1 = 0.07017
  mass density: 999.384 ± 0.09 kg/m3
[2]; m1 = 0.09322
  mass density: 1000.14 ± 0.09 kg/m3
[2]; m1 = 0.1151
  mass density: 1000.85 ± 0.09 kg/m3
[2]; m1 = 0.141
  mass density: 1001.69 ± 0.09 kg/m3
[2]; m1 = 0.1712
  mass density: 1002.65 ± 0.09 kg/m3
[2]; m1 = 0.188
  mass density: 1003.15 ± 0.09 kg/m3
[2]; m1 = 0.2082
  mass density: 1003.81 ± 0.09 kg/m3
[2]; m1 = 0.2386
  mass density: 1004.84 ± 0.09 kg/m3
[2]; m1 = 0.2675
  mass density: 1005.71 ± 0.09 kg/m3
[2]; m1 = 0.2906
  mass density: 1006.37 ± 0.09 kg/m3
[2]; m1 = 0.3089
  mass density: 1006.95 ± 0.1 kg/m3
[2]; m1 = 0.3399
  mass density: 1007.94 ± 0.1 kg/m3
[2]; m1 = 0.3919
  mass density: 1009.45 ± 0.1 kg/m3
[2]; m1 = 0.4432
  mass density: 1011.03 ± 0.1 kg/m3
[2]; m1 = 0.4982
  mass density: 1012.71 ± 0.1 kg/m3

## CCCCNc1ccc(C(=O)OCCN(C)C)cc1.Cl + O
[1]; m1 = 0.01696
  osmotic coefficient: 0.896 ± 0.004
[1]; m1 = 0.0205
  osmotic coefficient: 0.884 ± 0.005
[1]; m1 = 0.02526
  osmotic coefficient: 0.871 ± 0.005
[1]; m1 = 0.0301
  osmotic coefficient: 0.858 ± 0.006
[1]; m1 = 0.03454
  osmotic coefficient: 0.848 ± 0.006
[1]; m1 = 0.03897
  osmotic coefficient: 0.839 ± 0.006
[1]; m1 = 0.04254
  osmotic coefficient: 0.832 ± 0.007
[1]; m1 = 0.04793
  osmotic coefficient: 0.822 ± 0.007
[1]; m1 = 0.05807
  osmotic coefficient: 0.805 ± 0.008
[1]; m1 = 0.06741
  osmotic coefficient: 0.79 ± 0.008
[1]; m1 = 0.07521
  osmotic coefficient: 0.778 ± 0.009
[1]; m1 = 0.08589
  osmotic coefficient: 0.762 ± 0.009
[1]; m1 = 0.09567
  osmotic coefficient: 0.747 ± 0.01
[1]; m1 = 0.1161
  osmotic coefficient: 0.716 ± 0.011
[1]; m1 = 0.1436
  osmotic coefficient: 0.672 ± 0.013
[1]; m1 = 0.1726
  osmotic coefficient: 0.622 ± 0.015
[1]; m1 = 0.1924
  osmotic coefficient: 0.587 ± 0.016
[1]; m1 = 0.2427
  osmotic coefficient: 0.498 ± 0.019
[1]; m1 = 0.3009
  osmotic coefficient: 0.411 ± 0.023
[1]; m1 = 0.3479
  osmotic coefficient: 0.367 ± 0.025
[1]; m1 = 0.4005
  osmotic coefficient: 0.363 ± 0.025
[2]; m1 = 0.01696
  mass density: 997.722 ± 0.094 kg/m3
[2]; m1 = 0.0205
  mass density: 997.869 ± 0.095 kg/m3
[2]; m1 = 0.02526
  mass density: 998.076 ± 0.094 kg/m3
[2]; m1 = 0.0301
  mass density: 998.265 ± 0.093 kg/m3
[2]; m1 = 0.03454
  mass density: 998.444 ± 0.093 kg/m3
[2]; m1 = 0.03897
  mass density: 998.614 ± 0.093 kg/m3
[2]; m1 = 0.04254
  mass density: 998.764 ± 0.094 kg/m3
[2]; m1 = 0.04793
  mass density: 998.98 ± 0.094 kg/m3
[2]; m1 = 0.05807
  mass density: 999.405 ± 0.093 kg/m3
[2]; m1 = 0.06741
  mass density: 999.767 ± 0.092 kg/m3
[2]; m1 = 0.07521
  mass density: 1000.07 ± 0.09 kg/m3
[2]; m1 = 0.08589
  mass density: 1000.49 ± 0.09 kg/m3
[2]; m1 = 0.09567
  mass density: 1000.88 ± 0.09 kg/m3
[2]; m1 = 0.1161
  mass density: 1001.66 ± 0.09 kg/m3
[2]; m1 = 0.1436
  mass density: 1002.67 ± 0.09 kg/m3
[2]; m1 = 0.1726
  mass density: 1003.78 ± 0.09 kg/m3
[2]; m1 = 0.1924
  mass density: 1004.46 ± 0.09 kg/m3
[2]; m1 = 0.2427
  mass density: 1006.27 ± 0.1 kg/m3
[2]; m1 = 0.3009
  mass density: 1008.22 ± 0.1 kg/m3
[2]; m1 = 0.3479
  mass density: 1009.67 ± 0.1 kg/m3
[2]; m1 = 0.4005
  mass density: 1011.44 ± 0.1 kg/m3
